# Measurements taken from patent US11274131B2, “IgM-mediated receptor clustering and cell modulation” (MAYO FOUNDATION FOR MEDICAL EDUCATION AND RESEARCH, priority 2007, dated 2022).
# Entries after “also recorded” stand apart in the source; their conditions may differ.
# Columns and labels:
# [1] = system: matured human monocyte-derived DC; experiment: Antigen uptake assay, matured human DC; assay type: cell-based; settings: matured human DC, OVA-FITC
# Protocol: FIGS. 2A to 2G are a series of pictures showing that a kinase activated pathway regulates antibody-induced antigen uptake by matured DC. Matured human monocyte-derived DC were treated with the MTAb B7-DC XAb for varying time periods and evaluated for the phosphorylation status of select signaling pathway intermediates by immunoprecipitation with DAP12 (MC457), Syk (4D10), and PLCγ1 (MC490) reactive antibodies followed by western blot analysis using the phosphotyrosine reactive antibody 4G10 as a probe (FIGS. 2A-2C). Samples of the cells blocked with indicated concentration of piceatannol (FIG. 2D) or with […] of piceatannol (FIG. 2E) were analyzed for phosphorylation of Syk (FIG. 2D) and PLCγ1 (FIG. 2E). To investigate the functional importance of these signaling intermediates in the regulation of antigen uptake by matured DC activated with B7-DC XAb, varying concentrations of pharmacologic inhibitors were used to block the activity of p72Syk (piceatannol) and PLCγ1 (U73122) (FIGS. 2F and 2G, respectively). Antigen uptake was assessed by pulsing cultures with FITC-conjugated ovalbumin and measuring intracellular fluorescence 16 hours later in CD11c positive cells by flow cytometry.
# Human DC were generated from peripheral blood CD14^+ monocytes by incubation in GM-CSF and IL-4 for five days. […] All cultures were pulsed with OVA-FITC at the time of treatment with IgM antibodies, and […] OVA-FITC was assessed 24 hours later by flow cytometry.
# FIGS. 4A and 4B are a series of plots showing the effects of kinase inhibitors on OVA-FITC uptake by matured human DC, as determined by flow cytometry. […] All cells were pulsed with OVA-FITC at the time of treatment with IgM antibody, and CD11c+ cells were analyzed for OVA-FITC uptake 24 hours later by flow cytometry. […]
# Antigen uptake experiments were carried out as described previously (Radhakrishnan et al. (2005) Proc. Natl. Acad. Sci. U.S.A. 102:11438-11443). […] The matured cells were incubated with ovalbumin labeled with FITC or APC and control antibody or B7-DC XAb for two hours, washed and analyzed by FACSCALIBUR™ (Becton Dickinson). […]
# [2] = system: OT-II CD4+CD25+ Treg cells; experiment: Conversion of OT-II Tregs to Th17 phenotype by antibody-treated DCs; assay type: cell-based, mouse
# Protocol: FIG. 16 is a series of plots showing conversion of OT-II CD4 Treg cells to a Th17 phenotype by co-incubation with DCs expressing the Kb-peptide constructs treated with MTabs. OT-II CD4+CD25+ splenic Tregs were isolated by MACS and added 1:1 to DCs pulsed with Ovalbumin and treated with hIgM12, hIgM22, or 28-13-3. After 48 hours, the T cells were harvested, stained with CD4, and internally stained with FoxP3 PE and IL-17 APC. Expression was assayed by flow cytometry, and cells were gated on CD4.
# This was measured by loss of FoxP3 expression and gain of IL-17 expression, corresponding to loss of a repressive phenotype and gain of an effector phenotype. Studies were conducted to compare the ability of wild type DCs or B7DC−/− B7DC reconstituted DCs to B7DC−/− transduced with the Kb-peptide constructs to convert Tregs to Th17 polarized T cells. DCs were pulsed with 10 ug/mL ovalbumin and treated with 10 ug/mL of either hIgM12, hIgM22, or 28-13-3, 24 hours prior to addition of T cells. Splenic OT-II Tregs were isolated by MACs and added to DC cultures at a 1:1 ratio. After 48 hours of co-incubation, T cells were harvested, stained with CD4 PerCP, and permeabilized and stained with FoxP3 PE and IL-17 APC. Samples were run by flow cytometry and cells were gated by high CD4 expression. Conversion was measured by loss of FoxP3 expression and gain of IL-17 expression.
# mouse DC = experiment: Calcium flux assay, mouse DC; assay type: cell-based
# Protocol: Changes in the levels of intracellular Ca^2+ were assessed in Indol-loaded cells by flow cytometry as described previously (Takahashi et al. (2005) J. Exp. Med. 201:647-657). Briefly, 5×10^6 DC/ml were incubated with 5 μM Indo-1 (Calbiochem) at 37° C. for 30 minutes. The cells were washed twice in serum free media and resuspended at 10^6/ml in PBS containing 0.5% BSA. The samples were analyzed by flow cytometry using a UV laser. Violet (390 nm) and blue (500 nm) fluorescence emissions were recorded. Baseline was recorded for two minutes. Antibody was added to the cell suspension (10 μg/ml of control antibody or B7-DC XAb) and the measurements were recorded for 8 additional minutes. In blocking experiments, mouse or human DC were pre-incubated with 10 μg/ml of purified anti-mouse B7-DC antibody (TY-25) or purified anti-human B7-DC antibody (MIH18) for 15 minutes, followed by collection of data for calcium flux as described above. Ionomycin added at 1 μg/ml after 2 minutes served as a positive control. The blue to violet ratio was calculated using FlowJo software (Tristar, Ashland, Oreg.).
substance,measurement,setting,value
B7-DC XAb: human monoclonal IgM from a Waldenstrom's macroglobulinemia patient that binds and cross-links B7-DC on DC,antigen uptake by matured DC,[1],regaining the ability to take up antigen; also recorded: take up ovalbumin when activated
same,conversion of Tregs to Th17 polarized cells,[2]; knockout DCs expressing Kb-12p9A,responded
same,conversion of Tregs to Th17 polarized cells,"[2]; wild type DCs and B7DC reconstituted knockouts, 10 ug/mL",converted Tregs to Th17 polarized cells
same,intracellular calcium signal,mouse DC,prolonged calcium signals
